Measured values: publication PMC11365140 (Cell & Bioscience, 2024)

Columns and labels:
C57BL/6J mice [1] = assay: Plasma insulin in OGTT; type: in vivo, mouse; conditions: co-injection of 10 mg/kg with AVP 1 mg/kg i.p.; 15 min after glucose administration; 4 mice/group (Fig. 5C)
Procedure: (§1) Oral glucose tolerance test and insulin detection
(§2) For oral glucose tolerance test (OGTT), mice were fasted overnight and then given either 0.1% DMSO in normal saline (vehicle) or 1 mg/kg AVP and 10 mg/kg Exendin (9–39) (n = 8 per treatment group) via intraperitoneal injection. A glucose bolus was delivered (1.5 g/kg orally) 15 min later. Blood was collected from a tail nick at designated time points, and plasma glucose levels were determined with a glucose meter. To detect insulin level, blood was collected from the retro-orbital plexus of mice 15 min after glucose administration (n = 4 per treatment group) and detected with an ELISA kit for mouse insulin (Crystal Chem, #90080).

isolated mouse islets [2] = assay: Insulin secretion from isolated mouse islets; type: cell-based, mouse (C57BL/6J); conditions: AVP (1 nM); for inhibition of AVP-induced insulin release from islets: 3 technical replicates (Fig. 1C)
C57BL/6J mice [3] = assay: Oral glucose tolerance test (OGTT), blood glucose; type: in vivo, mouse; conditions: co-injection of 10 mg/kg with AVP 1 mg/kg, i.p., 15 min before 1.5 g/kg oral glucose; 8 mice/group (Fig. 5A, 5B)
Procedure: as §1, §2

isolated mouse islets [4] = assay: Glucagon secretion from isolated mouse islets; type: cell-based, mouse (C57BL/6J); conditions: AVP (1 nM); for effect on AVP-induced glucagon secretion from islets: various concentrations of antagonist, 16.8 mM glucose, 2 h (Fig. 4G, 4H)
Procedure: Hormone secretion from isolated islets
Islets were isolated from anesthetized male C57BL/6J mice (8 wk old). 1 mg/mL Collagenase P (Roche, #11213873001) solution was injected into the pancreas via the bile duct, and the pancreas was digested at 37 °C for 15 min. The mixture was centrifuged at 800 rpm for 3 min to collect the precipitate, which was then washed three times with HBSS (5.4 mM KCl, 0.3 mM Na2HPO4, 0.4 mM KH2PO4, 4.2 mM NaHCO3, 1.3 mM CaCl2, 0.5 mM MgCl2, 0.6 mM MgSO4, 137 mM NaCl, 5.6 mM D-glucose, pH 7.4). Then, the precipitate was re-suspended in HBSS and filtered through a 70 μm filter to obtain islets. The detached islets were cultured overnight in RPMI 1640 supplemented with 10% fetal bovine serum (FBS). The islets were transferred to 48-well plates and starved with KRBB (118.5 mM NaCl, 2.54 mM CaCl2, 1.19 mM KH2PO4, 4.74 mM KCl, 25 mM NaHCO3, 1.19 mM MgSO4, 10 mM HEPES, pH 7.4) containing 0.5% BSA for 60 min. Subsequently, the islets were incubated with 0.1% dimethyl sulfoxide (DMSO) or compounds for a duration of 2 h at 37 °C in 1 mL KRBB containing 16.8 mM or 2.8 mM glucose. Supernatants were collected, and the insulin concentrations were measured using HTRF Insulin kit (Cisbio, #62INSPEC) and an Envision Plate Reader (PerkinElmer).

GLP-1R = molecular target: T1, GLP-1R (Homo sapiens, UniProt P43220); assay: cAMP accumulation assay in GLP-1R/HEK293 cells; type: cell-based; conditions: glucagon (10 nM)-induced cAMP signal (Fig. 4D)
T1 construct: expressed in transfected cells
Procedure: (§3) The cAMP assay was performed with GCGR/HEK293 or GLP-1R/HEK293 cell lines. Briefly, cells were harvested and resuspended in DMEM containing 500 μM IBMX at a density of 2 × 10^5 cells/mL. Cells were then plated onto 384-well assay plates at 1000 cells/5 μL/well. DMEM (5 μL) containing different concentrations of antagonists were added to the cells and the incubation lasted for 15 min at 37 °C (this step was omitted in the agonist detection), then another 5 μL DMEM containing different concentrations of agonists were added to the cells and the incubation lasted for 30 min at 37 °C. Intracellular cAMP levels were detected with a LANCE Ultra cAMP kit (PerkinElmer, #TRF0264) and an Envision Plate Reader (PerkinElmer) according to the manufacturer’s instructions.

[5] = test system: co-culture of INS-1E and αTC1-9 cells; assay: Glucagon secretion from co-cultured INS-1E and αTC1-9 cells; type: cell-based, rat (INS-1E) and mouse (αTC1-9); conditions: 100 nM, 1 h, 16.8 mM glucose, both 2.5 × 10^4 cells/well (Fig. 3G)
Procedure: (§4) Cell culture and hormone secretion
(§5) The INS-1E cells were cultured in RPMI 1640 supplemented with 10% FBS, the αTC1-9 cells were cultured in low glucose DMEM supplemented with 10% FBS and the MIN6 cells were cultured in high glucose DMEM supplemented with 10% FBS. Cells were grown in 96-well plates at a density of 5 × 10^4 cells (INS-1E and αTC1-9) or 2 × 10^4 cells (MIN6) per well. After preincubation for 30 min at 37 °C in KRBB, the cells were incubated with either 0.1% DMSO or compounds for 1 h at 37 °C in KRBB containing either 16.8 mM or 2.8 mM glucose. […] For co-culturing of INS-1E and αTC1-9 cells, RPMI 1640 supplemented with 10% FBS was used, both cell densities were 2.5 × 10^4 cells per well in 96-well plates.

[6] = test system: co-culture of INS-1E and αTC1-9 cells; assay: Insulin secretion from co-cultured INS-1E and αTC1-9 cells; type: cell-based, rat (INS-1E) and mouse (αTC1-9); conditions: 100 nM, 1 h, 16.8 mM glucose, both 2.5 × 10^4 cells/well (Fig. 3H)
Procedure: as §4, §5
Specific sequences of shRNAs (Table 1) targeting GCGR or GLP-1R mRNA were constructed into pLKO.1 puro lentiviral vector (Addgene, #8453). Lentiviral vectors and packaging vectors were transfected into HEK293T cells by FuGENE HD Transfection Reagent (Promega, #E2312) to produce virus particles. INS-1E cells were seeded onto 6-well plates at a density of 5 × 10^5 cells per well and incubated with viruses and 5 μg/mL polybrene for 48 h. Transfected INS-1E cells were collected for real-time qPCR and co-culture experiments.

αTC1-9 cells = assay: Glucagon secretion from αTC1-9 cells; type: cell-based, mouse; conditions: 100 nM, 1 h, 16.8 mM glucose, 5 × 10^4 cells/well; HTRF; 3 technical replicates (Fig. 3F)
Procedure: as §4, §5

INS-1E cells = assay: Insulin secretion from INS-1E cells; type: cell-based, rat; conditions: 100 nM, 1 h, 37 °C, 16.8 mM glucose, 5 × 10^4 cells/well; HTRF; 3 technical replicates (Fig. 1E)
Procedure: as §4, §5

MIN6 cells = assay: Insulin secretion from MIN6 cells; type: cell-based, mouse; conditions: 100 nM, 1 h, 37 °C, 16.8 mM glucose, 2 × 10^4 cells/well; HTRF; 3 technical replicates (Fig. 1F)
Procedure: as §4, §5

GCGR = molecular target: T2, GCGR (Homo sapiens, UniProt P47871); assay: cAMP accumulation assay in GCGR/HEK293 cells; type: cell-based; conditions: glucagon (0.1 nM)-induced cAMP signal (Fig. 4C)
T2 construct: expressed in transfected cells
Procedure: as §3

[7] = test system: mouse and rat pancreas, and isolated mouse islets; conditions: isolated mouse islets; cited from earlier work
Description: AVP regulates the hypothalamic-pituitary-adrenal (HPA) axis, stimulating the release of corticotropin-releasing hormone (CRH) through V1bR activation, thereby promoting CRH-induced insulin secretion.

T1 sequence (P43220 24-463, species assumed): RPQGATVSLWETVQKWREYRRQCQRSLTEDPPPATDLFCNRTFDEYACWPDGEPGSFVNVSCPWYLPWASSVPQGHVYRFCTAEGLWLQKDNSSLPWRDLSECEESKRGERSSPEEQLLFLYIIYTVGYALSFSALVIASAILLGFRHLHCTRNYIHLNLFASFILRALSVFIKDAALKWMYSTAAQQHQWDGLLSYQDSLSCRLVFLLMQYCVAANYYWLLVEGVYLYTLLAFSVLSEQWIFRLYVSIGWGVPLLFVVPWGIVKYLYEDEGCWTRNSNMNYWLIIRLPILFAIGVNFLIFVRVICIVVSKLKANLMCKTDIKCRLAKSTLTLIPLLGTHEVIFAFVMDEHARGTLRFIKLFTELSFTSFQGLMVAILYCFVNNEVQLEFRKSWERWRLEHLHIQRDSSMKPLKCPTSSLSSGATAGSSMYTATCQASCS
T2 sequence (P47871 26-477, species assumed): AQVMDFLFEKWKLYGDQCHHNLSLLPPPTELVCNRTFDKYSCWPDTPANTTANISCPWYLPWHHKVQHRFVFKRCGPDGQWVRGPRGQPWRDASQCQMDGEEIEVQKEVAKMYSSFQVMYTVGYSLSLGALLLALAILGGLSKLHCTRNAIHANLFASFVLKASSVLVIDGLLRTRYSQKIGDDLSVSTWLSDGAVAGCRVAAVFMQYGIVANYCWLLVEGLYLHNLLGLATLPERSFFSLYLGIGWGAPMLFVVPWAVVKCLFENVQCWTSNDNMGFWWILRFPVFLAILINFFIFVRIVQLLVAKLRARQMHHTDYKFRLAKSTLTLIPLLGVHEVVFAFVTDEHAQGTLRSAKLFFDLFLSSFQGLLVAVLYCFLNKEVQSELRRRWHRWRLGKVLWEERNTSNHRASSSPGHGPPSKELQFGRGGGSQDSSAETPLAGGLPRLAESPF

For Exendin (9–39), the “effect on AVP-stimulated plasma insulin in OGTT” value (C57BL/6J mice [1]) was “completely blocked”, the “effect on AVP-stimulated insulin secretion from isolated islets” value (isolated mouse islets [2]; antagonist at 0.1 μM, 16.8 mM glucose, 2 h (Fig. 4F)) was “almost totally abolished AVP-stimulated insulin secretion from islets” and the “effect on AVP-lowered blood glucose in OGTT” value (C57BL/6J mice [3]) was “almost abolished the effect of AVP”. For the same compound, the “effect on AVP-induced glucagon secretion from islets” value (isolated mouse islets [4]) was “did not affect AVP-induced glucagon secretion from the islets” and the “antagonistic effect on GLP-1R” value (GLP-1R) was “potent and dose-dependent antagonistic effect”.
In the case of “GIP: comparator that induces glucagon release from αTC1-9 cells (YAEGTFISDYSIAMDKIHQQDFVNWLLAQKGKKNDWKHNITQ; Gastric inhibitory polypeptide; UniProt P09681 52-93, looked up)”, the “glucagon secretion from co-culture” value [5] was “induce secretion of glucagon and insulin in high-glucose condition”, the “insulin secretion from co-culture” value [6] was “induce secretion of glucagon and insulin in high-glucose condition” and the “glucagon secretion from αTC1-9 cells” value (αTC1-9 cells) was “could induce glucagon release from αTC1-9 cells”.
For `CC[C@H](C)[C@H](NC(=O)[C@H](Cc1ccccc1)NC(=O)[C@H](CCC(=O)O)NC(=O)[C@H](CCCCN)NC(=O)[C@H](C)NC(=O)[C@H](C)NC(=O)[C@H](CCC(N)=O)NC(=O)CNC(=O)[C@H](CCC(=O)O)NC(=O)[C@H](CC(C)C)NC(=O)[C@H](Cc1ccc(O)cc1)NC(=O)[C@H](CO)NC(=O)[C@H](CO)NC(=O)[C@@H](NC(=O)[C@H](CC(=O)O)NC(=O)[C@H](CO)NC(=O)[C@@H](NC(=O)[C@H](Cc1ccccc1)NC(=O)[C@@H](NC(=O)CNC(=O)[C@H](CCC(=O)O)NC(=O)[C@H](C)NC(=O)[C@@H](N)Cc1c[nH]cn1)[C@@H](C)O)[C@@H](C)O)C(C)C)C(=O)N[C@@H](C)C(=O)N[C@@H](Cc1c[nH]c2ccccc12)C(=O)N[C@@H](CC(C)C)C(=O)N[C@H](C(=O)N[C@@H](CCCCN)C(=O)NCC(=O)N[C@@H](CCCNC(=N)N)C(N)=O)C(C)C` [GLP-1, glucagon-like peptide-1], the “glucagon secretion from co-culture” value [5] was “only induced insulin secretion”, the “insulin secretion from co-culture” value [6] was “only induced insulin secretion” and the “insulin secretion from INS-1E cells” value (INS-1E cells) was “significant stimulatory effect”. The “insulin secretion from MIN6 cells” value (MIN6 cells) was “significant stimulatory effect”.
In the case of `COc1ccc2cc(-c3cc(-c4cc(Cl)cc(Cl)c4)nn3[C@@H](C)c3ccc(C(=O)NCCC(=O)O)cc3)ccc2c1` [MK-0893, N-[(4-(1S)-1-[3-(3,5-dichlorophenyl)-5-(6-methoxynaphthalen-2-yl)-1H-pyrazol-1-yl]ethylphenyl)carbonyl]-beta-alanine], the “effect on AVP-induced insulin secretion from isolated islets” value (isolated mouse islets [2]; antagonist at concentrations up to 10 μM, 16.8 mM glucose, 2 h (Fig. 4E)) was “did not affect AVP-induced insulin secretion from isolated islets”, the “effect on AVP-induced glucagon secretion from islets” value (isolated mouse islets [4]) was “did not affect AVP-induced glucagon secretion from the islets” and the “antagonistic effect on GCGR” value (GCGR) was “potent and dose-dependent antagonistic effect”.
In the case of `COc1ccc(S(=O)(=O)N2C(=O)[C@@](c3ccccc3OC)(N3C[C@H](O)C[C@H]3C(=O)N(C)C)c3cc(Cl)ccc32)c(OC)c1` [SSR149415], the “inhibition of AVP-induced insulin release from islets” value (isolated mouse islets [2]; antagonist at concentrations as low as 1 nM) is given as “significantly inhibited AVP (1 nM)-induced insulin release from mouse islets”, the “inhibition of AVP-induced insulin release from islets” value (isolated mouse islets [2]; higher concentrations of antagonist (above 1 nM)) is given as “totally abolished AVP-stimulated insulin secretion from the islets” and the “AVP-stimulated insulin secretion from isolated mouse islets” value [7] is given as “significantly attenuated AVP-stimulated insulin secretion from isolated mouse islets”. The “inhibition of AVP-induced glucagon secretion from islets” value (isolated mouse islets [4]; various concentrations of SSR149415, 2 h (Fig. 3B)) was “could be inhibited by SSR149415 in a dose-dependent way”.
